According to patent US20230131192A1, “1H-PYRAZOLO[4,3-d]PYRIMIDINE COMPOUNDS AS TOLL-LIKE RECEPTOR 7 (TLR7) AGONISTS” (BRISTOL-MYERS SQUIBB COMPANY, priority 2020, published 2023):

Tests used:
CD69 = test: Induction of CD69 in human whole blood; assay type: cell-based; details: 17 hrs, CD69 surface staining, 100% set to 1 uM of resiquimod, average where assay was performed multiple times, read-out: hWB CD69 EC50
Experimental: The induction of Type I interferon (IFN) MX-1 genes and the B-cell activation marker CD69 are downstream events that occur upon activation of the TLR7 pathway. The following is a human whole blood assay that measures their induction in response to a TLR7 agonist.
Heparinized human whole blood was harvested from human subjects and treated with test TLR7 agonist compounds at 1 mM. The blood was diluted with RPMI 1640 media and Echo was used to predot 10 nL per well giving a final concentration of 1 uM (10 nL in 10 uL of blood). After mixing on a shaker for 30 sec, the plates were covered and placed in a 37° C. chamber for o/n=17 hrs. Fixing/lysis buffer was prepared (5×→1× in H2O, warm at 37° C.; Cat # BD 558049) and kept the perm buffer (on ice) for later use.
For surface markers staining (CD69): prepared surface Abs: 0.045 ul hCD14-FITC (ThermoFisher Cat # MHCD1401)+0.6 ul hCD19-ef450 (ThermoFisher Cat #48-0198-42)+1.5 ul hCD69-PE (cat # BD555531)+0.855 ul FACS buffer. Added 3 ul/well, spin1000 rpm for 1 min and mixed on shaker for 30 sec, put on ice for 30 mins. Stop stimulation after 30 minutes with 70 uL of prewarmed 1× fix/lysis buffer and use Feliex mate to resuspend (15 times, change tips for each plate) and incubate at 37 C for 10 minutes.
Centrifuge at 2000 rpm for 5 minutes aspirate with HCS plate washer, mix on shaker for 30 sec and then wash with 70 uL in dPBS and pelleted 2×s (2000 rpm for 5 min) and 50 ul wash in FACS buffer pelleted 1×s(2000 rpm for 5 min). Mix on shaker for 30 sec. For Intracellular markers staining (MX-1): Add 50 ul of BD Perm buffer III and mix on shaker for 30 sec. Incubate on ice for 30 minutes (in the dark). Wash with 50 uL of FACS buffer 2× (spin @2300 rpm×5 min after perm) followed by mixing on shaker for 30 sec. Resuspended in 20 ul of FACS buffer containing MX1 antibody ( )(4812)-Alexa 647: Novus Biologicals #NBP2-43704AF647) 20 ul FACS bf+0.8 ul hlgG+0.04 ul MX-1. Spin 1000 rpm for 1 min, mix on shaker for 30se and the samples were incubated at RT in the dark for 45 minutes followed by washing 2×FACS buffer (spin @2300 rpm×5 min after perm). Resuspend 20 ul (35 uL total per well) of FACS buffer and cover with foil and place in 4° C. to read the following day. Plates were read on iQuePlus. The results were loaded into toolset and […] curves are generated in curve master. The y-axis 100% is set to 1 uM of resiquimod.

human TLR7 = molecular target: T1, human TLR7 (Homo sapiens, UniProt Q9NYK1); test: Human TLR7 agonist (reporter) activity assay, HEK-Blue TLR7 cells, SEAP reporter; assay type: cell-based; details: 18 h treatment, average where assay was performed multiple times, read-out: hTLR7 Agonism EC50
T1 construct: host or cells: HEK-Blue TLR7 cells (engineered human embryonic kidney cells)
T1 sequence (Q9NYK1 27-1049): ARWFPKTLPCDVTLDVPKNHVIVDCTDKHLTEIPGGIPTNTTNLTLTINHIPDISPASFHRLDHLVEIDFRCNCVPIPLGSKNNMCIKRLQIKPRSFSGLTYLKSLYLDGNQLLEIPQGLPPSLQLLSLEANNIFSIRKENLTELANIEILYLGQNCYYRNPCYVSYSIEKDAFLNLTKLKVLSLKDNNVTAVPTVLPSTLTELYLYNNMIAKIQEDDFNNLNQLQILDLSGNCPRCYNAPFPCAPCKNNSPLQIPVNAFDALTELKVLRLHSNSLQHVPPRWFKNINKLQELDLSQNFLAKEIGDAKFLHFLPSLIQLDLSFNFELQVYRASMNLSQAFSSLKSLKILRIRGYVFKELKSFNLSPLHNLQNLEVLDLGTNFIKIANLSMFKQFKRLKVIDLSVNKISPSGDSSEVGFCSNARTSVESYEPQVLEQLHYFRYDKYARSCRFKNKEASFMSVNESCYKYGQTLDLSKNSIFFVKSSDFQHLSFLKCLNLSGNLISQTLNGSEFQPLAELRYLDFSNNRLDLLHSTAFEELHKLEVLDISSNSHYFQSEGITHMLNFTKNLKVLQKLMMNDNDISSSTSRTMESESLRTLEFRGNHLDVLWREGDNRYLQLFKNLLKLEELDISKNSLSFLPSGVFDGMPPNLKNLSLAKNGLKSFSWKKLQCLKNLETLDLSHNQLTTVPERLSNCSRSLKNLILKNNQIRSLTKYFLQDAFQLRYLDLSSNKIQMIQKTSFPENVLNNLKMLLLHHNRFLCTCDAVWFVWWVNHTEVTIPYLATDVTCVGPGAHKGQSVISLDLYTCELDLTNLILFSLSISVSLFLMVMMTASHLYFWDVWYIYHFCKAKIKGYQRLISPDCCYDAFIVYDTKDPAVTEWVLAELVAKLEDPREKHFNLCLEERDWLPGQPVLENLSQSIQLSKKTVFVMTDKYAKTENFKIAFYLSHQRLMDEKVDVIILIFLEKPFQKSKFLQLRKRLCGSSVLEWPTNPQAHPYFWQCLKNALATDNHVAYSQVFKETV
Experimental: This procedure describes a method for assaying human TLR7 (hTLR7) agonist activity of the compounds disclosed in this specification.
HEK-Blue™ TLR7 cells were added to each well of a 384-well tissue-culture plate (15,000 cells per well) and incubated 16-18 h at 37° C., 5% CO2. Compounds (100 nl) were dispensed into wells containing the HEK-Blue™ TLR cells and the treated cells were incubated at 37° C., 5% CO2. After 18 h treatment ten microliters of freshly-prepared Quanti-Blue™ reagent (Invivogen) was added to each well, incubated for 30 min (37° C., 5% CO2) and SEAP levels measured using an Envision plate reader (OD=620 nm). The half maximal effective concentration values (EC50; compound concentration which induced a response halfway between the assay baseline and maximum) were calculated.

EC50 (CD69) [nM] | EC50 (human TLR7) [nM] | Structure (SMILES)
221 | 570 | COc1cc(CNC2CN(S(C)(=O)=O)C2)ccc1Cn1ncc2nc(N)nc(NCc3noc(C)n3)c21 [Compound 122, 1-[(4-{[(1-methanesulfonylazetidin-3-yl)amino]methyl}-2-methoxyphenyl)methyl]-N7-[(5-methyl-1,2,4-oxadiazol-3-yl)methyl]-1H-pyrazolo[4,3-d]pyrimidine-5,7-diamine]
9.5 | 57 | COc1cc(CN2CC(OC)C2)ccc1Cn1ncc2nc(N)nc(NCc3cc(C)on3)c21 [Compound 106, 1-({2-methoxy-4-[(3-methoxyazetidin-1-yl)methyl]phenyl}methyl)-N7-[(5-methyl-1,2-oxazol-3-yl)methyl]-1H-pyrazolo[4,3-d]pyrimidine-5,7-diamine]
